Values of other authors, collected in patent publication US12390432B2, “Methods for treating allan-herndon-dudley syndrome” (PriZm, LLC, priority 2022, dated 2025).

Conditions: literature report, Groeneweg et al. Lancet Diabetes Endocrinol. 2019; cited from earlier work

For `O=C(O)Cc1cc(I)c(Oc2ccc(O)c(I)c2)c(I)c1` [TRIAC, triiodothyroacetic acid], the “thyroxine (T4) serum levels” value is listed as “significantly reduce”.
